Toxic doses and inconclusive results are not listed.
Tested on: BDF1 mice, P388 leukemia ip, median survival T/C
Assay: NCI In Vivo Anticancer Drug Screen. Data for tumor model P388 Leukemia (intraperitoneal) in B6D2F1 (BDF1) mice
Conditions: endpoint: median survival time, higher = longer survival
Procedure, shortened: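 T/C = treated-group survival ÷ vehicle-control survival; tumour transplanted into mice before dosing.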

[1] = dose: 100.0 mg/kg/injection, schedule: Q01DX009 (ip), vehicle: saline
[2] = dose: 100.0 mg/kg/injection, schedule: Q04DX003 (ip), vehicle: saline
[3] = dose: 200.0 mg/kg/injection, schedule: Q01DX009 (ip), vehicle: saline
[4] = dose: 200.0 mg/kg/injection, schedule: Q04DX003 (ip), vehicle: saline
[5] = dose: 400.0 mg/kg/injection, schedule: Q04DX003 (ip), vehicle: saline
[6] = dose: 100.0 mg/kg/injection, schedule: Q01DX009 (ip), vehicle: Klucel (hydroxypropylcellulose) (HPC)
[7] = dose: 100.0 mg/kg/injection, schedule: Q04DX003 (ip), vehicle: Klucel (hydroxypropylcellulose) (HPC)
[8] = dose: 200.0 mg/kg/injection, schedule: Q04DX003 (ip), vehicle: Klucel (hydroxypropylcellulose) (HPC)
[9] = dose: 100.0 mg/kg/injection, schedule: Q01DX009 (ip), vehicle: saline with Tween-80
[10] = dose: 200.0 mg/kg/injection, schedule: Q01DX009 (ip), vehicle: saline with Tween-80
[11] = dose: 50.0 mg/kg/injection, schedule: Q01DX009 (ip), vehicle: other
[12] = dose: 100.0 mg/kg/injection, schedule: Q04DX003 (ip), vehicle: saline with Tween-80
[13] = dose: 50.0 mg/kg/injection, schedule: Q01DX009 (ip), vehicle: saline with Tween-80
[14] = dose: 25.0 mg/kg/injection, schedule: Q01DX009 (ip), vehicle: saline with Tween-80

`O=C(COc1cc(Cl)c(Cl)cc1Cl)OCCOc1cc(Cl)c(Cl)cc1Cl` was tested, and the T/C (dose: 3.13 mg/kg/injection, schedule: Q01DX009 (ip), vehicle: saline with Tween-80) was 91 % of control, the T/C (dose: 3.13 mg/kg/injection, schedule: Q04DX003 (ip), vehicle: saline with Tween-80) was 100 % of control and the T/C (dose: 6.25 mg/kg/injection, schedule: Q04DX003 (ip), vehicle: saline with Tween-80) was 95 % of control. For the same compound, the T/C (dose: 12.5 mg/kg/injection, schedule: Q04DX003 (ip), vehicle: saline with Tween-80) was 100 % of control.

`CC1(C)OC(=O)CC(=O)O1` was tested, and the T/C [1] was 105 % of control, the T/C [2] was 91 % of control and the T/C [3] was 100 % of control. For the same compound, the T/C [4] was 91 % of control and the T/C [5] was 100 % of control.

With `Cc1cc(O)c2c3c(ccc2c1)C(=O)c1c(O)cccc1C3=O` the T/C (dose: 0.5 mg/kg/injection, schedule: Q01DX009 (ip), vehicle: Klucel (hydroxypropylcellulose) (HPC)) was 109 % of control, the T/C (dose: 1.0 mg/kg/injection, schedule: Q01DX009 (ip), vehicle: Klucel (hydroxypropylcellulose) (HPC)) was 110 % of control and the T/C (dose: 2.0 mg/kg/injection, schedule: Q01DX009 (ip), vehicle: Klucel (hydroxypropylcellulose) (HPC)) was 101 % of control. The T/C (dose: 4.0 mg/kg/injection, schedule: Q01DX009 (ip), vehicle: Klucel (hydroxypropylcellulose) (HPC)) was 101 % of control.

`CCOC(=O)c1ccc(NCC(=N)N)cc1` was tested, and the T/C (dose: 37.5 mg/kg/injection, schedule: Q01DX001 (ip), vehicle: saline sonified) was 100 % of control, the T/C (dose: 75.0 mg/kg/injection, schedule: Q01DX001 (ip), vehicle: saline sonified) was 100 % of control and the T/C (dose: 150.0 mg/kg/injection, schedule: Q01DX001 (ip), vehicle: saline sonified) was 100 % of control.

For `CN(C)C(=S)N(C)C`, the T/C [2] was 100 % of control, the T/C [4] was 100 % of control and the T/C [5] was 118 % of control.

`[N-]=[N+]=CC(=O)OCC(N)C(=O)O` (centres undefined) was tested, and the T/C [1] was 110 % of control, the T/C [2] was 109 % of control and the T/C [3] was 110 % of control. The T/C [4] was 109 % of control and the T/C [5] was 118 % of control.

For `ClCc1ccncc1`, the T/C [2] was 100 % of control and the T/C [4] was 100 % of control.

For `Cc1c(N=Cc2ccccc2)c(=O)n(-c2ccccc2)n1C`, the T/C (dose: 100.0 mg/kg/injection, schedule: Q01DX009 (ip), vehicle: gum acacia) was 110 % of control, the T/C (dose: 100.0 mg/kg/injection, schedule: Q04DX003 (ip), vehicle: gum acacia) was 88 % of control and the T/C (dose: 200.0 mg/kg/injection, schedule: Q01DX009 (ip), vehicle: gum acacia) was 103 % of control. For the same compound, the T/C (dose: 200.0 mg/kg/injection, schedule: Q04DX003 (ip), vehicle: gum acacia) was 100 % of control, the T/C (dose: 400.0 mg/kg/injection, schedule: Q01DX009 (ip), vehicle: gum acacia) was 92 % of control and the T/C (dose: 400.0 mg/kg/injection, schedule: Q04DX003 (ip), vehicle: gum acacia) was 92 % of control.

`OCC1(c2ccccc2)CCN(Cc2ccccc2)CC1` was tested, and the T/C (dose: 25.0 mg/kg/injection, schedule: Q01DX009 (ip), vehicle: Klucel (hydroxypropylcellulose) (HPC)) was 107 % of control, the T/C (dose: 50.0 mg/kg/injection, schedule: Q01DX009 (ip), vehicle: Klucel (hydroxypropylcellulose) (HPC)) was 107 % of control and the T/C [6] was 87 % of control. For the same compound, the T/C [7] was 91 % of control and the T/C [8] was 87 % of control.

With `C[C@]12C=CC(=O)C[C@@H]1CC[C@@H]1[C@@H]2C(=O)C[C@]2(C)C(=O)CC[C@@H]12` the T/C [9] was 100 % of control, the T/C [10] was 100 % of control and the T/C (dose: 400.0 mg/kg/injection, schedule: Q01DX009 (ip), vehicle: saline with Tween-80) was 109 % of control.

For `OCc1ccccc1[S+]1OCc2ccccc21` (centres undefined), the T/C [11] was 104 % of control, the T/C (dose: 100.0 mg/kg/injection, schedule: Q01DX009 (ip), vehicle: other) was 97 % of control and the T/C (dose: 200.0 mg/kg/injection, schedule: Q01DX009 (ip), vehicle: other) was 108 % of control.

With `COC(=O)Nc1cccc(NC(=O)C(=O)O)c1` the T/C (dose: 50.0 mg/kg/injection, schedule: Q04DX003 (ip), vehicle: saline with Tween-80) was 100 % of control and the T/C [12] was 100 % of control.

`CNS(=O)(=O)c1ccc2c(c1)[nH]c(=S)n2C` was tested, and the T/C [12] was 95 % of control, the T/C (dose: 200.0 mg/kg/injection, schedule: Q04DX003 (ip), vehicle: saline with Tween-80) was 109 % of control and the T/C (dose: 400.0 mg/kg/injection, schedule: Q04DX003 (ip), vehicle: saline with Tween-80) was 100 % of control.

With `CC1CN1P(=O)(N1CC2CCC(CC2)C1)N1CC1C` (centres undefined) the T/C (dose: 14.0 mg/kg/injection, schedule: Q01DX009 (ip), vehicle: saline with Tween-80) was 113 % of control, the T/C (dose: 21.0 mg/kg/injection, schedule: Q01DX009 (ip), vehicle: saline with Tween-80) was 122 % of control and the T/C (dose: 33.0 mg/kg/injection, schedule: Q01DX009 (ip), vehicle: saline with Tween-80) was 159 % of control. The T/C [13] was 154 % of control and the T/C [9] was 86 % of control.

With `O=[N+]([O-])c1ccc(CCSCCc2ccc([N+](=O)[O-])cc2)cc1` the T/C (dose: 50.0 mg/kg/injection, schedule: Q01DX005 (ip), vehicle: Klucel (hydroxypropylcellulose) (HPC)) was 104 % of control, the T/C (dose: 100.0 mg/kg/injection, schedule: Q01DX005 (ip), vehicle: Klucel (hydroxypropylcellulose) (HPC)) was 97 % of control and the T/C (dose: 200.0 mg/kg/injection, schedule: Q01DX005 (ip), vehicle: Klucel (hydroxypropylcellulose) (HPC)) was 94 % of control.

In the case of `NC(CS(=O)(=O)c1ccc(N(CCCl)CCCl)cc1)C(=O)O` (centres undefined), the T/C (dose: 100.0 mg/kg/injection, schedule: Q01DX001 (ip), vehicle: saline with Tween-80) is reported as 108 % of control, the T/C (dose: 200.0 mg/kg/injection, schedule: Q01DX001 (ip), vehicle: saline with Tween-80) is reported as 101 % of control and the T/C (dose: 400.0 mg/kg/injection, schedule: Q01DX001 (ip), vehicle: saline with Tween-80) is reported as 90 % of control.

In the case of `COc1ccc(OC)c(C(=O)C[n+]2ccccc2)c1`, the T/C [14] is reported as 91 % of control and the T/C [13] is reported as 91 % of control.

In the case of `CN(C)C1CCCCC1`, the T/C (dose: 25.0 mg/kg/injection, schedule: Q04DX003 (ip), vehicle: Klucel (hydroxypropylcellulose) (HPC)) is reported as 91 % of control and the T/C (dose: 50.0 mg/kg/injection, schedule: Q04DX003 (ip), vehicle: Klucel (hydroxypropylcellulose) (HPC)) is reported as 95 % of control.

With `CCOC(=O)CNC(c1ccccc1)(c1ccccc1)c1ccccc1` the T/C [6] was 95 % of control, the T/C [7] was 109 % of control and the T/C (dose: 200.0 mg/kg/injection, schedule: Q01DX009 (ip), vehicle: Klucel (hydroxypropylcellulose) (HPC)) was 91 % of control. For the same compound, the T/C [8] was 113 % of control, the T/C (dose: 400.0 mg/kg/injection, schedule: Q01DX009 (ip), vehicle: Klucel (hydroxypropylcellulose) (HPC)) was 108 % of control and the T/C (dose: 400.0 mg/kg/injection, schedule: Q04DX003 (ip), vehicle: Klucel (hydroxypropylcellulose) (HPC)) was 104 % of control.

In the case of `CCOC(=O)CCC1(C(=O)OCC)Oc2ccc(Cl)cc2C1=O` (centres undefined), the T/C [13] is reported as 106 % of control, the T/C [9] is reported as 93 % of control and the T/C [10] is reported as 108 % of control.

For `CCCCCCCCSSCCCCCCCC`, the T/C [2] was 95 % of control, the T/C [4] was 100 % of control and the T/C [5] was 95 % of control.

For `Cn1nnn2c(-c3ccccc3)nnc12`, the T/C [14] was 115 % of control, the T/C [13] was 110 % of control and the T/C [9] was 95 % of control.

`CSCCC(NC(C)=O)C(=O)O` (centres undefined) was tested, and the T/C [1] was 96 % of control, the T/C [2] was 87 % of control and the T/C [3] was 88 % of control. The T/C [4] was 87 % of control and the T/C [5] was 91 % of control.

In the case of `O=C1c2ccccc2C(=O)c2c(NCCN3CCCCC3)ccc(NCCN3CCCCC3)c21`, the T/C [11] is reported as 115 % of control.

From PubChem BioAssay AID328 (DTP/NCI, 2004)
